By IC50 is commonly meant the concentration needed to halve the response being measured.

Consider one molecule from US20100152301A1, “Treatment of Viral Infections” (GOVERNMENT OF THE US, AS REPRESENTED BY THE SECRETARY, …, priority 2005, published 2010).

In data set [1] the target is T1, Q148C/SSS-mutant integrase (Human immunodeficiency virus type 1 group M subtype B, UniProt P04585, C1203S/C1212S/C1427S/Q1295C).
T1 construct: 10 μM recombinant Q148C/SSS-mutant integrase was incubated with 10 μM DNA substrate; made in house
The data set can be described thus: biochemical. The class given is binding, HIV-1.
Description: Briefly, 10 μM recombinant Q148C/SSS-mutant integrase was incubated with 10 μM DNA substrate (FIG. 5A) containing tethered thiols in the presence of 20 mM Tris, pH 7.4, 10% glycerol and 7.5 mM of divalent cations (MgCl2 or MnCl2 as indicated) for 20 min at 37° C. Reactions were stopped by the addition of 20 mM methylmethanethiosulfonate (capping reagent). Non-reducing gel loading buffer (100 mM Tris-HCl, pH 6.8, 4% SDS, 0.2% bromophenol blue, 20% glycerol) was added and samples were heated at 95° C. before loading onto 16% tricine gels (Invitrogen, Carlsbad, Calif.). Gels were stained with Microwave Blue according to manufacturer's recommendations (Protiga, Frederick, Md.).
DNA (20 nM) containing a [5′-^32P]-label on one strand and a thiol-modified cytosine on the other strand was added and reactions were capped with methylmethanethiosulfonate at 1 minute. Following capping, non-reducing gel loading buffer (100 mM Tris-HCl, pH 6.8, 4% SDS, 0.2% bromophenol blue, 20% glycerol) was added and samples were directly loaded on 16% tricine gels (Invitrogen, Carlsbad, Calif.). Gels were dried and reaction products were quantitated using the same way as described above.

Data set [2] concerns the target T2, HIV-1 integrase (Human immunodeficiency virus type 1 group M subtype B, UniProt P04585).
T2 construct: Expression and purification of the recombinant HIV-1 integrase in Escherichia coli; made in house; host or cells: Escherichia coli
The data set can be described thus: Integrase catalytic assay, 3′-processing (3′-P), 21 bp duplex substrate. Conditions: In vitro IC50 21 bp substrate 3′-P. The class given is biochemical. Here is the method: (§1) Recombinant HIV integrase and oligonucleotide substrates. Expression and purification of the recombinant HIV-1 integrase in Escherichia coli were performed according to (Leh et al., 2000; Marchand et al., 2001) with addition of 10% glycerol to all buffers. The preparation of the Q148C/SSS-mutant integrase will be described elsewhere (Johnson et al., 2005). The oligonucleotide substrates, except those used for the disulfide crosslinking (FIG. 5A), were purchased from Integrated DNA Technologies, Inc. (Coraville, Iowa) and purified by polyacrylamide gel. The single-stranded oligonucleotides were 5′-end labeled with [γ^32P]-ATP (Perkin Elmer, Wellesley, M A) and T4 polynucleotide kinase (New England BioLabs, Ipswich, M A). Unincorporated nucleotide was removed using mini Quick Spin Oligo columns (Roche Diagnostics, Indianapolis, Ind.). Substrates were obtained after annealing with complementary non-labeled oligonucleotides. The thiol-modified substrate (FIG. 5A) for disulfide crosslinking assay was synthesized as essentially described by W. Santos and G. Verdine (Department of Chemistry and Chemical Biology, Harvard University, Cambridge, Mass.) (They and Verdine, 2002).
(§2) Integrase catalytic assays. Reactions were performed in 10 μl with 300 nM of recombinant IN, 20 nM of the 5′-end [^32P]-labeled oligonucleotide substrates and inhibitors at the indicated concentrations. 10% DMSO was included in controls. Reactions were incubated for 40 min at 37° C. in a buffer containing a final concentration of 25 mM MOPS, pH 7.2, 25 mM NaCl, 14.3 mM β-mercaptoethanol and 7.5 mM of divalent cations (MgCl2 or MnCl2 as indicated). Reactions were stopped by addition of 20 μl loading dye (10 mM EDTA, 98% deionized formamide, 0.025% xylene cyanol and 0.025% bromophenol blue). Reactions were heated at 95° C. for 1 min before electrophoresis in 20% polyacrylamide-7 M urea gels. Gels were dried and reaction products were visualized and quantitated with a Molecular Dynamics PhosphorImager (Sunnyvale, Calif.). Densitometric analyses were performed using ImageQuant from the Molecular Dynamics software. The concentrations at which enzyme activity was reduced by 50% (IC50), was determined using “Prism” software (GraphPad Software, San Diego, Calif.) for nonlinear regression to fit dose-response data to logistic curve models.

The test system of data set [3] is HIV-1IIIB. In words: Inhibition of HIV-induced cytopathic effect in MT-2 cell culture. The class given is cell-based. Conditions: MT-2 cells. On the procedure: (§3) Inhibition of HIV-induced cytopathic effect in cell culture. The MT-2 cells were grown in RPMI-1640 medium with GlutaMAX™, supplemented with 10% (v/v) heat-inactivated fetal bovine serum (both from Gibco, Invitrogen corporation, Carlsbad). The cells were maintained at 37° C. in a humidified atmosphere of 5% CO2 in air. Every 4-5 days, cells were spun down and seeded at 2×10^5 cells/ml in new cell culture flasks. HIV ([…] isolate) was obtained from Advanced Biotechnology Incorporated (Columbia, Md.). The virus stock [3,2×10^4 CCID50 (50% cell culture infective dose) per ml as determined for MT-2 cells] was stored at −70° C. until used. Stock solutions of compounds were diluted using medium directly into 96-well assay plate (Costar, Corning inc, Corning, N.Y.).
(§4) Cells were then infected with 100 CCID50 or mock-infected. The cell cultures were incubated at 37° C. in a humidified atmosphere of 5% CO2 in air. […] The percent cell viability in drug treated uninfected and infected cells was determined based on the viability of the uninfected control drug treated cells. The concentration of drug required to inhibit approximately 50% of the HIV-1 induced cytotoxicity was calculated from the plot of compound concentration verses the percent viable cells.

Data set [4] concerns the target T2, HIV-1 integrase. The data set can be described thus: Integrase binding to HIV DNA, Schiff base crosslinking assay. Conditions: Mg2+. Here is the method: Integrase binding to HIV DNA using the shiff-base assay. The shiff-base assay was performed as described (Mazumder and Pommier, 1995). Briefly, 300 nM recombinant IN was incubated with inhibitors (at the indicated concentration) for 15 min at 37° C. Subsequently, 20 nM of 5′-end labeled substrate containing the abasic oligonucleotide (FIG. 6A) was added for 10 min at room temperature in reaction buffer described above for integrase catalytic assays. A freshly prepared solution of sodium borohydride (0.1 M final concentration) was added for 5 min. An equal volume (10 μl) of 2×SDS-polyacrylamide gel electrophoresis buffer (Invitrogen, Carlsbad, Calif.) was added in each reaction. Reaction products were heated at 95° C. for 1 min before analysis by electrophoresis in a 12-20% polyacrylamide gels (Invitrogen, Calif., USA). Gels were dried and reaction products were quantitated using the same method as described above.

The target of data set [5] is HIV-1 protease (Human immunodeficiency virus type 1 group M subtype B, UniProt P04585). The data set can be described thus: Fluorimetric HIV-1 protease assay. The class given is biochemical. Conditions: concentration up to 25 μM; data not shown. On the procedure:
Fluorimetric HIV-1 protease assay. The fluorescent HIV-1 protease substrate (RE-(EDANS)-SQNYPIVQK-(DABCYL)-R) was obtained from Molecular Probes, Inc. (Eugene, Oreg.). Substrate and buffer were pre-warmed at 37° C. for at least 20 min before use. The protease (25 nM final concentration) was incubated in the manufacturer's recommended assay buffer (100 mM Na acetate, 1M NaCl, 1 mM EDTA, 1 mM DTT, 10% DMSO and 1 mg ml^−1 BSA pH 4.7) at 37° C. in the presence of 1-25 μM NSC 18806 for 10 min and then added to the warmed substrate solution (40 μM) containing the different treatments to initiate the reaction. Acetyl pepstatin (Sigma, St. Louis, Mo.) at 20 nM was used a positive HIV-1 protease inhibitor control. The total assay volume was 100 µL. Fluorescence was monitored for 30 min in a fluorescence microplate reader (FMAX, Molecular Devices, Sunnyvale, Calif.) with 355 nm excitation and 460 nm emission filters and the rate of reactions compared for the different conditions.

Data set [6] has as its target T2, HIV-1 integrase. In words: Disintegration assay with Y-oligomer substrate. The format is biochemical. Conditions: for IC50: In vitro IC50 Disintegration. Here is the method:
as §1, §2

The target in data set [7] is T2, HIV-1 integrase. In words: Integrase catalytic assay, strand transfer (ST), 21 bp duplex substrate. The class given is biochemical. Conditions: for IC50: In vitro IC50 21 bp substrate ST. On the procedure: as §1, §2
The target of data set [8] is T2, HIV-1 integrase. The data set can be described thus: Strand transfer assay with preprocessed (19/21) DNA substrate. The class given is biochemical. Conditions: In vitro IC50 Preprocessed substrate. On the procedure:
as §1, §2

In data set [9] the test system is MT-2 cells. The class given is cell-based. Conditions: human, 4 days. Here is the method: as §3, §4

For the molecule `CC(C)c1ccc(O)c(=O)c(O)c1` [NSC 18806, β-thujaplicinol], the IC50 in data set [1] was 32 µM; in data set [2] (Mg2+), 117 ± 7.1 µM; in data set [2] (Mn2+), 24.6 µM; in data set [3] (Human immunodeficiency virus 1, MT2, 96 h, four days after infection, read-out: estimated IC50, protection of infected cells from HIV-induced cytopathic effect), ~12 µM; in [6] (Mg2+) it was > 333 µM; in data set [6] (Mn2+), 23.8 µM. Also, the IC50 in data set [7] (Mg2+) is 21.6 ± 3.4 µM; in [7] (Mn2+), 4.8 ± 2.5 µM; in data set [8] (Mg2+) it was 18.1 ± 6.2 µM; in data set [8] (Mn2+), 5 µM. Also, the “inhibition of integrase-DNA disulfide-crosslinking (in words)” value in data set [1] (drug 1 mM, Mg2+ or Mn2+ (FIG. 5B)) is “metal-dependent inhibition”. Further, the “activity in HIV infectivity assay (in words)” value in [3] is on record as “exhibits cytoprotective activity”. In addition, the “inhibition of Schiff base IN-DNA crosslinking (in words)” value in [4] is “did not block”. Besides, the “inhibition of HIV-1 protease (in words)” value in [5] is on record as “failed to inhibit HIV-1 protease”. For the same molecule, the “inhibition of disintegration (in words)” value in data set [6] (Mg2+) is “inability of NSC 18806 to inhibit disintegration”; in data set [6] (Mn2+), “only inhibited in the presence of Mn^2+ at high drug concentration”. For the same molecule, the inhibition at 333 µM in data set [6] (read-out: inhibition activity, disintegration) was 5 to 20%. Moreover, the “IC50 for 3′-P relative to IC50 for ST” value in data set [7] (21 bp duplex, in the presence of either Mg2+ or Mn2+) is on record as “approximately 5 fold”. The “concentrations with presence of toxicity” value in data set [9] was ≥ 12 µM.
